Reference: patent US8916702B2 (priority 2012, dated 2014)

System: HCV pseudoparticles (genotype 1a HCV E1 and E2 envelope, H77C isolate)
Experiment: microbe, parasite or virus in culture
Assay type: cell-based
Details: Hepatitis C virus, Huh-7, 48 h, HCV pseudoparticle infection of Huh7 cells, luciferase 2 days after infection; average of duplicates

SMILES	EC50 [nM]
CC(C)(CNC(=O)C(=O)Nc1ccccc1Cl)CNC(=O)c1ccc(Nc2nc(NC3(c4ccc(Cl)cc4)CC3)nc(OCC(F)(F)F)n2)cc1 [Compound 1571]	0.05
CCC1CCC(NC(=O)C(=O)NC[C@H](NC(=O)c2ccc(Nc3nc(NC4(c5ccc(Cl)cc5)CC4)nc(OCC(F)(F)F)n3)cc2)C(=O)OC)CC1 (stereo partly drawn) [Compound 1065]	0.59
COC(=O)[C@H](CNC(=O)C(=O)NC1CCC(C)CC1)NC(=O)c1ccc(Nc2nc(NC3(c4ccc(Cl)cc4)CC3)nc(OCC(F)(F)F)n2)cc1 (stereo partly drawn) [Compound 1064]	1.89

Same assay, conditions: Hepatitis C virus, Huh-7, 48 h, HCV pseudoparticles (genotype 1a, H77C) in Huh7 cells; average of duplicate; luciferase 2 days after infection

SMILES	EC50 [nM]
COC(=O)/C=C/c1ccccc1NC(=O)C(=O)NCC(C)(C)CNC(=O)c1ccc(Nc2nc(NC3(c4ccc(Cl)cc4)CC3)nc(OCC(F)(F)F)n2)cc1 [Compound 3138]	0.46
CC(C)(CNC(=O)C(=O)NC1CC1)CNC(=O)c1ccc(Nc2nc(NC3(c4ccc(Cl)cc4)CC3)nc(OCC(F)(F)F)n2)cc1 [Compound 3066]	0.032
CN(CCCNC(=O)c1ccc(Nc2nc(NC3(c4ccc(Cl)cc4)CC3)nc(OCC(F)(F)F)n2)cc1)C(=O)C(=O)Nc1ccc(F)cc1 [Compound 3448]	0.059
Cc1ccc(NC(=O)C(=O)NCC(C)(C)CNC(=O)c2ccc(Nc3nc(NC4(c5ccc(Cl)cc5)CC4)nc(OCC(F)(F)F)n3)cc2)c(F)c1 [Compound 3056]	0.007

Same assay, conditions: Hepatitis C virus, Huh-7, 48 h, HCV pseudoparticles, Huh7 cells, luciferase 2 days after infection; average of duplicates

SMILES	EC50 [nM]
COC(=O)[C@H](CNC(=O)C(=O)Nc1cccc(-c2ncc[nH]2)c1)NC(=O)c1ccc(Nc2nc(NC3(c4ccc(Cl)cc4)CC3)nc(OCC(F)(F)F)n2)cc1 [Compound 3709]	0.71

Same assay, conditions: Hepatitis C virus, Huh-7, 48 h, read-out: Activity (EC50 class), HCV pseudoparticle infection of Huh7 cells, luciferase 2 days after infection; EC50 expressed as class A/B

SMILES	EC50 [nM]
COC(=O)[C@H](CCNC(=O)C(=O)NCc1cccc(OC)c1)NC(=O)c1ccc(Nc2nc(NC3(c4ccc(Cl)cc4)CC3)nc(OCC(F)(F)F)n2)cc1 [Compound 1156]	0.01 to 10
CCOC(=O)[C@H](CNC(=O)C(=O)N(C)C)NC(=O)c1ccc(Nc2nc(NC3(c4ccc(Cl)cc4)CC3)nc(OCC(F)(F)F)n2)cc1 [Compound 1020, (S)-ethyl 2-(4-(4-(1-(4-chlorophenyl)cyclopropylamino)-6-(2,2,2-trifluoroethoxy)-1,3,5-triazin-2-ylamino)benzamido)-3-(2-(dimethylamino)-2-oxoacetamido)propanoate]	0.01 to 10
COC(=O)[C@H](CCNC(=O)C(=O)Nc1cn[nH]c1)NC(=O)c1ccc(Nc2nc(NC3(c4ccc(Cl)cc4)CC3)nc(OCC(F)(F)F)n2)cc1 [Compound 1224]	0.01 to 10
COC(=O)[C@H](CCNC(=O)C(=O)Nc1ccc(OC)nc1)NC(=O)c1ccc(Nc2nc(NC3(c4ccc(Cl)cc4)CC3)nc(OCC(F)(F)F)n2)cc1 [Compound 1218]	0.01 to 10
CC(C)(CNC(=O)C(=O)Nc1ccccc1Cl)CNC(=O)c1ccc(Nc2nc(NC3(c4ccc(Cl)cc4)CC3)nc(OCC(F)(F)F)n2)cc1 [Compound 1571]	0.01 to 10
COC(=O)[C@H](CCNC(=O)C(=O)Nc1ccc(Cl)cc1)NC(=O)c1ccc(Nc2nc(NC3(c4ccc(Cl)cc4)CC3)nc(OCC(F)(F)F)n2)cc1 [Compound 1515]	0.01 to 10
CC1CCC(NC(=O)C(=O)NC[C@H](NC(=O)c2ccc(Nc3nc(NC4(c5ccc(Cl)cc5)CC4)nc(OCC(F)(F)F)n3)cc2)C(=O)O)CC1 (stereo partly drawn) [Compound 1092]	0.01 to 10
O=C(NCC[C@H](NC(=O)c1ccc(Nc2nc(NC3(c4ccc(Cl)cc4)CC3)nc(OCC(F)(F)F)n2)cc1)C(=O)O)C(=O)Nc1ccc(C(F)(F)F)cc1 [Compound 1275]	0.01 to 10
O=C(NCc1cccnc1)C(=O)NC[C@@H](NC(=O)c1ccc(Nc2nc(NC3(c4ccc(Cl)cc4)CC3)nc(OCC(F)(F)F)n2)cc1)C(=O)O [Compound 1043]	0.01 to 10
Cc1nc(-c2ccc(NC(=O)C(=O)NCC(C)(C)CNC(=O)c3ccc(Nc4nc(NC5(c6ccc(Cl)cc6)CC5)nc(OCC(F)(F)F)n4)cc3)cc2)no1 [Compound 1563]	0.01 to 10
O=C(NCCc1ccccc1F)C(=O)NCC[C@H](NC(=O)c1ccc(Nc2nc(NC3(c4ccc(Cl)cc4)CC3)nc(OCC(F)(F)F)n2)cc1)C(=O)O [Compound 1334]	0.01 to 10
COC(=O)[C@H](CNC(=O)C(=O)NC1CCC(F)(F)CC1)NC(=O)c1ccc(Nc2nc(NC3(c4ccc(Cl)cc4)CC3)nc(OCC(F)(F)F)n2)cc1 [Compound 1057]	0.01 to 10
CCC1CCC(NC(=O)C(=O)NC[C@H](NC(=O)c2ccc(Nc3nc(NC4(c5ccc(Cl)cc5)CC4)nc(OCC(F)(F)F)n3)cc2)C(=O)OC)CC1 (stereo partly drawn) [Compound 1065]	0.01 to 10
COC(=O)[C@H](CNC(=O)C(=O)NC1CCC(C)CC1)NC(=O)c1ccc(Nc2nc(NC3(c4ccc(Cl)cc4)CC3)nc(OCC(F)(F)F)n2)cc1 (stereo partly drawn) [Compound 1064]	0.01 to 10
COC(=O)[C@H](CCNC(=O)C(=O)Nc1ccc(-c2ccccc2)cc1)NC(=O)c1ccc(Nc2nc(NC3(c4ccc(Cl)cc4)CC3)nc(OCC(F)(F)F)n2)cc1 [Compound 1524]	0.01 to 10
CCC(CC)CNC(=O)C(=O)NC[C@H](NC(=O)c1ccc(Nc2nc(NC3(c4ccc(Cl)cc4)CC3)nc(OCC(F)(F)F)n2)cc1)C(=O)OC [Compound 1454]	0.01 to 10

Same assay, conditions: Hepatitis C virus, Huh-7, 48 h, read-out: Activity (EC50 class), HCV pseudoparticles, Huh7 cells, luciferase 2 days after infection; average of duplicates

SMILES	EC50 [nM]
Cc1ccc(NC(=O)C(=O)NCC(C)(O)CNC(=O)c2ccc(Nc3nc(NC4(c5ccc(Cl)cc5)CC4)nc(OCC(F)(F)F)n3)cc2)cc1 (stereo not drawn) [Compound 3832]	0.01 to 10
COC(=O)[C@H](CNC(=O)C(=O)Nc1cccc(OCc2ccccc2)c1)NC(=O)c1ccc(Nc2nc(NC3(c4ccc(Cl)cc4)CC3)nc(OCC(F)(F)F)n2)cc1 [Compound 3686]	0.01 to 10
COC(=O)[C@H](CNC(=O)C(=O)Nc1cccc(-c2ncc[nH]2)c1)NC(=O)c1ccc(Nc2nc(NC3(c4ccc(Cl)cc4)CC3)nc(OCC(F)(F)F)n2)cc1 [Compound 3709]	0.01 to 10
COC(=O)[C@H](CCNC(=O)C(=O)Nc1cccc(-c2ccc(Cl)cc2)c1)NC(=O)c1ccc(Nc2nc(NC3(c4ccc(Cl)cc4)CC3)nc(OCC(F)(F)F)n2)cc1 [Compound 3599]	0.01 to 10
CS(=O)(=O)c1cccc(NC(=O)C(=O)NCC[C@H](NC(=O)c2ccc(Nc3nc(NC4(c5ccc(Cl)cc5)CC4)nc(OCC(F)(F)F)n3)cc2)C(=O)O)c1 [Compound 3632]	0.01 to 10

Same assay, conditions: Hepatitis C virus, Huh-7, read-out: Activity (EC50 class), HCV pseudoparticles (genotype 1a, H77C) in Huh7 cells; EC50 expressed as class A/B

SMILES	EC50 [nM]
O=C(NC[C@H](NC(=O)c1ccc(Nc2nc(NC3(c4ccc(Cl)cc4)CC3)nc(OCC(F)(F)F)n2)cc1)C(=O)O)C(=O)Nc1ccc(Cn2cccc2)cc1 [Compound 3280]	0.01 to 10
COC(=O)[C@H](CCNC(=O)C(=O)Nc1ccc(-c2ccccc2C)cc1)NC(=O)c1ccc(Nc2nc(NC3(c4ccc(Cl)cc4)CC3)nc(OCC(F)(F)F)n2)cc1 [Compound 3304]	0.01 to 10
CC(C)(CNC(=O)C(=O)Nn1cnnc1)CNC(=O)c1ccc(Nc2nc(NC3(c4ccc(Cl)cc4)CC3)nc(OCC(F)(F)F)n2)cc1 [Compound 3253]	0.01 to 10
CC(C)(CNC(=O)C(=O)Nc1ccc(C#N)cc1)CNC(=O)c1ccc(Nc2nc(NC3(c4ccc(Cl)cc4)CC3)nc(OCC(F)(F)F)n2)cc1F [Compound 3516]	0.01 to 10
COC(=O)/C=C/c1ccccc1NC(=O)C(=O)NCC(C)(C)CNC(=O)c1ccc(Nc2nc(NC3(c4ccc(Cl)cc4)CC3)nc(OCC(F)(F)F)n2)cc1 [Compound 3138]	0.01 to 10
O=C(NC/C(=N/C(=O)c1ccc(Nc2nc(NC3(c4ccc(Cl)cc4)CC3)nc(OCC(F)(F)F)n2)cc1)C(=O)O)C(=O)Nc1ccc(-n2cnc(O)c2O)cc1 [Compound 3163]	0.01 to 10
O=C(NC[C@H](NC(=O)c1ccc(Nc2nc(NC3(c4ccc(Cl)cc4)CC3)nc(OCC(F)(F)F)n2)cc1)C(=O)O)C(=O)Nc1ccc(Cn2ccnc2)cc1 [Compound 3285]	0.01 to 10
COC(=O)[C@H](CCNC(=O)C(=O)Nc1ccc(-c2nc(OC)cc(OC)n2)cc1)NC(=O)c1ccc(Nc2nc(NC3(c4ccc(Cl)cc4)CC3)nc(OCC(F)(F)F)n2)cc1 [Compound 3302]	0.01 to 10
COc1ccc(C2(Nc3nc(Nc4ccc(C(=O)NCC(C)(C)CNC(=O)C(N)=O)cc4)nc(OCC(F)(F)F)n3)CC2)cc1Cl [Compound 3333]	0.01 to 10
Cc1ccc(NC(=O)C(=O)NCC(C)CNC(=O)c2ccc(Nc3nc(NC4(c5ccc(Cl)cc5)CC4)nc(OCC(F)(F)F)n3)cc2)cc1Cl (stereo not drawn) [Compound 3474]	0.01 to 10
O=C(NCC[C@H](NC(=O)c1ccc(Nc2nc(NC3(c4ccc(Cl)cc4)CC3)nc(OCC(F)(F)F)n2)cc1)C(=O)O)C(=O)Nc1ccc(Cc2ccncc2)cc1 [Compound 3224]	0.01 to 10
O=C(Cc1nccs1)C(=O)NCC(O)CNC(=O)c1ccc(Nc2nc(NC3(c4ccc(Cl)cc4)CC3)nc(OCC(F)(F)F)n2)cc1 (stereo not drawn) [Compound 3462]	0.01 to 10
CCOCCOc1ccc(NC(=O)C(=O)NC[C@H](NC(=O)c2ccc(Nc3nc(NC4(c5ccc(Cl)cc5)CC4)nc(OCC(F)(F)F)n3)cc2)C(=O)OC)cc1 [Compound 3192]	0.01 to 10
CC(C)(CNC(=O)C(N)=O)CNC(=O)c1ccc(Nc2nc(NC3(c4ccc(Cl)cc4)CC3)nc(OCC(F)(F)F)n2)c(O)c1 [Compound 3478]	0.01 to 10
Cc1ccccc1-c1ccc(NC(=O)C(=O)NCCC(NC(=O)c2ccc(Nc3nc(NC4(c5ccc(Cl)cc5)CC4)nc(OCC(F)(F)F)n3)cc2)C(=O)O)cc1 (stereo not drawn) [Compound 3525]	10 to 1000
CC(C)(CNC(=O)C(=O)NC1CC1)CNC(=O)c1ccc(Nc2nc(NC3(c4ccc(Cl)cc4)CC3)nc(OCC(F)(F)F)n2)cc1 [Compound 3066]	0.01 to 10
COC(=O)[C@@H](CCNC(=O)C(=O)Nc1ccc(OCCC2C(=O)c3ccccc3C2=O)nc1)NC(=O)c1ccc(Nc2nc(NC3(c4ccc(Cl)cc4)CC3)nc(OCC(F)(F)F)n2)cc1 [Compound 3569]	0.01 to 10
O=C(Nc1cccc(F)c1)C(=O)N1CCCC(CNC(=O)c2ccc(Nc3nc(NC4(c5ccc(Cl)cc5)CC4)nc(OCC(F)(F)F)n3)cc2)C1 (stereo not drawn) [Compound 3479]	0.01 to 10
COc1ccc(NC(=O)C(=O)NCC(C)(C)CNC(=O)c2ccc(Nc3nc(NC4(c5ccc(Cl)cc5)CC4)nc(OCC(F)(F)F)n3)cc2)c(C(F)(F)F)c1 [Compound 3456]	0.01 to 10
CN(CCCNC(=O)c1ccc(Nc2nc(NC3(c4ccc(Cl)cc4)CC3)nc(OCC(F)(F)F)n2)cc1)C(=O)C(=O)Nc1ccc(F)cc1 [Compound 3448]	0.01 to 10
Cc1ccc(NC(=O)C(=O)NCC(C)(C)CNC(=O)c2ccc(Nc3nc(NC4(c5ccc(Cl)cc5)CC4)nc(OCC(F)(F)F)n3)cc2)c(F)c1 [Compound 3056]	0.01 to 10
Cc1cc(C)nc(N(C)c2ccc(NC(=O)C(=O)NC/C(=N/C(=O)c3ccc(Nc4nc(NC5(c6ccc(Cl)cc6)CC5)nc(OCC(F)(F)F)n4)cc3)C(=O)O)cc2)n1 [Compound 3171]	0.01 to 10
COc1ccc(C2(Nc3nc(Nc4ccc(C(=O)NCC(C)(C)CNC(=O)C(N)=O)cc4)nc(OCC(F)(F)F)n3)CC2)cc1C(F)(F)F [Compound 3351]	0.01 to 10
COC(=O)[C@H](CNC(=O)C(=O)Nc1ccc(OC(F)(F)F)cc1)NC(=O)c1ccc(Nc2nc(NC3(c4ccc(Cl)cc4)CC3)nc(OCC(F)(F)F)n2)cc1 [Compound 3214]	0.01 to 10
COC(=O)[C@H](CCNC(=O)C(=O)Nc1ccc(Cn2cccn2)cc1)NC(=O)c1ccc(Nc2nc(NC3(c4ccc(Cl)cc4)CC3)nc(OCC(F)(F)F)n2)cc1 [Compound 3312]	0.01 to 10
